Test [1] concerns the target T1, class E calcium channels (192C cells) (Homo sapiens, UniProt Q15878).
T1 construct: expressed in transfected cells; host or cells: HEK 293 (192C cells)
The class given is cell-based.

In test [2] the test system is calcium current (carried by barium) in neurohypophysial terminals. The class given is cell-based, rat.

Molecules are shown by their SMILES.

T1 sequence (Q15878 whole entry): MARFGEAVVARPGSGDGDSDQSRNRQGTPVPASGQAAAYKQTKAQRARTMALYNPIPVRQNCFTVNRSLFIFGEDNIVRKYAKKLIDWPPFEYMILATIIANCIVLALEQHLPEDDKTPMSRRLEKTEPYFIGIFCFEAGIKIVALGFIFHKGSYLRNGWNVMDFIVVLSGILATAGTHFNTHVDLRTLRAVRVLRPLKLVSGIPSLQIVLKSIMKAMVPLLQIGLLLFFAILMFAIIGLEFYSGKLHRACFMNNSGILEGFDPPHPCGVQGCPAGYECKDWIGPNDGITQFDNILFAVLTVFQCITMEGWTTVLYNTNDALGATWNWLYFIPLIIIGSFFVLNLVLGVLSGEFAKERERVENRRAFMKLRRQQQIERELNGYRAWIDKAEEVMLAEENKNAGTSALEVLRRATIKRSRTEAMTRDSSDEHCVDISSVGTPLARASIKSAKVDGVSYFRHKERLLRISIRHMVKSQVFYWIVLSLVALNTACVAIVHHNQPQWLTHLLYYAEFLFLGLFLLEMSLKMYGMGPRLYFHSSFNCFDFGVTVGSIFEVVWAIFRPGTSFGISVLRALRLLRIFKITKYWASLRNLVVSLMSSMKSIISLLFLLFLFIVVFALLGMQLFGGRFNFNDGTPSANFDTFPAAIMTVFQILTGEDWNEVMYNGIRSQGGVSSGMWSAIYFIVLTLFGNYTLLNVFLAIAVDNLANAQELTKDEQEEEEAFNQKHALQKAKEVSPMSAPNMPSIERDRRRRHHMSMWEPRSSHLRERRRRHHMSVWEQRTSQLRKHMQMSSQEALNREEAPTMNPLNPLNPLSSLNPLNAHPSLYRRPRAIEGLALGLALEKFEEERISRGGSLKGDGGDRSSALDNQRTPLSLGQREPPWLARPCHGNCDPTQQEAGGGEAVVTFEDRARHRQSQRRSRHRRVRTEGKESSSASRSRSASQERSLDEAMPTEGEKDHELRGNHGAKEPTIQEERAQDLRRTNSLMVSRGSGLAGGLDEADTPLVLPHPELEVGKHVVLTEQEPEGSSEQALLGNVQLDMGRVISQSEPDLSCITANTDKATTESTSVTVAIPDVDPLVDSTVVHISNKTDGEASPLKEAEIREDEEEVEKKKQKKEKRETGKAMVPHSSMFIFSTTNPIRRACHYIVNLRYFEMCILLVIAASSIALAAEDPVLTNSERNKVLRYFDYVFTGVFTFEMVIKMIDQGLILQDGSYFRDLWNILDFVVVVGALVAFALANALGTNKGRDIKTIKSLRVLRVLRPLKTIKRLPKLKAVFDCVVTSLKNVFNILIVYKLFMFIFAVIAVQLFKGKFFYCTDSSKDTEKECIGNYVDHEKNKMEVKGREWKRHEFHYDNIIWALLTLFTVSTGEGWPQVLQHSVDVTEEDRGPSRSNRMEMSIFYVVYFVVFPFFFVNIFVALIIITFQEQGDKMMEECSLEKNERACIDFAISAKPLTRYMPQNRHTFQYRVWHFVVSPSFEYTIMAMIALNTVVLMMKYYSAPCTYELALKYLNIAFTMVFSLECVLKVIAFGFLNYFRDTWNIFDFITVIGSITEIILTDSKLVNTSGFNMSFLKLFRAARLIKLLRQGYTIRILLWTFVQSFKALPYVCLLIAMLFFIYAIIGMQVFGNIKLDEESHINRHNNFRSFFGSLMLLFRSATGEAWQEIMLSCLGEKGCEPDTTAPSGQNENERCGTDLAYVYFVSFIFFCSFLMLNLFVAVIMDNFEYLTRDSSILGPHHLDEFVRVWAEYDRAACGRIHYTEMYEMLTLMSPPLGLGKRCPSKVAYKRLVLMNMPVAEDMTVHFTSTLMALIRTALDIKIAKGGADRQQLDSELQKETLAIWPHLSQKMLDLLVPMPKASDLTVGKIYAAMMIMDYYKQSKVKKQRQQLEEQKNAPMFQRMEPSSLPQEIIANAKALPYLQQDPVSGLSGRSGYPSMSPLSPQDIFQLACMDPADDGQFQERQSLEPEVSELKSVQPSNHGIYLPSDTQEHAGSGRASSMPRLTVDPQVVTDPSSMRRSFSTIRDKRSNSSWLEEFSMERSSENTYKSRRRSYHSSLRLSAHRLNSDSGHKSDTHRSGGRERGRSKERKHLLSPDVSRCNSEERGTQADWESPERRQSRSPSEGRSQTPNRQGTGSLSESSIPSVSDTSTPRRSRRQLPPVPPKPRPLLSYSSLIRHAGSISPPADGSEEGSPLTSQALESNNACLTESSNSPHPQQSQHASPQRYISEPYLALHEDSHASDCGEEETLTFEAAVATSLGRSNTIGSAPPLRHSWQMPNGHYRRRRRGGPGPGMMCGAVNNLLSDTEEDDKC

Take `CSCC[C@@H]1NC(=O)[C@H](CC(C)C)NC(=O)[C@H](CCCNC(=N)N)NC(=O)[C@H](CO)NC(=O)[C@@H]2CSSC[C@@H]3NC(=O)[C@H](CO)NC(=O)CNC(=O)[C@H]([C@@H](C)O)NC(=O)[C@H](CSSC[C@H](N)C(=O)N[C@@H](CCCCN)C(=O)NCC(=O)N[C@@H](CCCCN)C(=O)NCC(=O)N[C@@H](C)C(=O)N[C@@H](CCCCN)C(=O)N2)NC(=O)[C@H](CSSC[C@@H](C(N)=O)NC(=O)[C@H](CCCCN)NC(=O)CNC(=O)[C@H](CO)NC(=O)[C@H](CCCNC(=N)N)NC3=O)NC(=O)[C@H](CC(=O)O)NC(=O)[C@H](Cc2ccc(O)cc2)NC1=O` [SNX-111]: in test [1], the “sensitivity of depolarization evoked increase in internal calcium” value is reported as “resistant”. The “block of current remaining after nicardipine” value in test [2] was “blocked part but not all of the remaining current”.

For the origin of these results see patent publication US6653460B1 (priority 1996, dated 2003).
